Measurements: US6207397A, “In vitro fluorescence polarization assay” (ARIAD Pharmaceuticals, Inc., priority 1997, dated 2001)
Like-named read-outs stand apart in the source and are kept apart here. Blank lines part the entries; values can stand above or below the compound they belong to. Square brackets hold non-standard residues; d marks the D form. Peptide text beside a SMILES is read from it. * marks the point of attachment. 5FAM = O=C1OC2(c3ccc(O)cc3Oc3cc(O)ccc32)c2ccc(C(=O)*)cc21; pY = N[C@@H](Cc1ccc(OP(=O)(O)O)cc1)C(=O)O

How the values were obtained:
[1] = Hydrophobicity of the BODIPY-TRX peptide probe; assay type: physicochemical; settings: resultant peptide
Excerpt: (§1) Synthesis of the peptide portion of the probe was as described in Example 1, with production of the peptide NH2-pYEEI. The probe was further synthesized by coupling the free amine peptide, NH2-pYEEI, with the succinimidyl ester of the BODIPY-TRX probe in a 66% DMSO buffer (34% 0.1 MNaBicarbonate). Completion of reaction was monitored by silica gel TLC (4:1:1, butanol, H2O , Acetic Acid solvent system), and was done by 24 hrs.

Src-SH2 [2] = target: T1, Src-SH2 (Homo sapiens, UniProt P12931); test: Fluorescence polarization saturation experiment with Src-SH2 using an alternate (BODIPY-TRX) probe; assay type: binding; settings: filters 591/635
T1 construct: Human Src encoding residues 145-251; made in house; host or cells: E. coli BL21 (DE3), pT7 expression vector
Excerpt: A competition assay was developed for Src-SH2 (applicable to any fragment of Src containing the SH2 domain) with a non-fluorescein fluorophore. The fluorophore is one of a family of fluorescent molecules containing the core fluorophore, 4,4-difluoro-4 bora-3a,4a-diaza-s-indacene (commerciallyavailable from Molecular Probes Inc.). The structure of the fluorophore-peptide probe is: [drawing 2]
Specifically, the excitation/emission filters used with the above are 591/635, compared to 485/530 for fluorescein.
as §1
The only difference was the use of an alternate set of filters for the red probe, as described in A above.

Src-SH2 domain = target: T2, Src-SH2 domain (Homo sapiens, UniProt P12931); test: Fluorescence polarization saturation experiment of probe FMT1 with Src-SH2; assay type: binding
T2 construct: Human Src encoding residues 145-251; made in house; host or cells: E. coli BL21 (DE3), pT7 expression vector
Method: Human Src encoding residues 145-251 [Tanaka, A. and Fujita, D. J., Mol. Cell. Biol. 6:3900-3909 (1986)] was cloned into the pT7 expression vector and transformed into E. coli BL21 (DE3). Protein was produced from the growth and induction of 27 liters of culture in minimal medium. In a typical preparation, the culture was grown at 37° C. to an optical density (OD) of 1.0 at 595 nm. The culture was induced with 1 mM isopropyl--D-thiogalactopyranoside (IPTG) and the temperature was dropped to 25° C. The culture was harvested 21 hours later.
(§2) All polarization methods were performed on an FPM2 96-well plate reader (Jolley), with standard cutoff filters (excitation=485 nm; emission=530 nm). Saturation experiments were used to explore various conditions for the assay, with the aim of maximizing the protein and assay stability, and of determining Kd s of the protein/probe interaction.
For saturation experiments, fixed concentrations of probe were used, and increasing concentrations of Src-SH2 were added. This is the reverse of the way such assays are commonly done with radioactive ligands.
A saturation experiment was conducted in which the Src-SH2 domain is varied in concentration from a high of 40 uM to a low of 39 nM. The fluorescent probe FMT1 (FIG. 1) was kept at a fixed concentration of 20 nM. Amino acid analysis was used to quantitate both the protein and probe concentrations. The results are illustrated in the saturation curve and Scatchard analysis of FIGS. 2A and 2B, respectively from this experiment.

Src SH3 = target: T3, Src SH3 (Homo sapiens, UniProt P12931); test: Fluorescence polarization saturation experiment, Src SH3 binding assay with Src-SH2-SH3 protein; settings: SH3 probe
T3 construct: SH3-specific probe
Excerpt: Biol. 7(5): 1978-1983 (1987)], and a probe specific for the Src SH3 domain (in place of the Src-specific SH2 probe). Note that larger or smaller Src proteins may be used, so long as they include the Src SH3 domain (with or without the Src SH2 domain). Production and purification of the protein were essentially as described above, e.g., see Example 3. The following details are provided:
The following Src SH3 specific probe ("FPSH3") was synthesized using the techniques described in Example 1: […]

GRB2 SH2 = GRB2 SH2 (Homo sapiens, UniProt P62993); settings: saturation with GRB2 SH2 protein
Method: The human GRB2 protein tested in the assay comprised amino acid residues 55-152 of huGRB2 [see Cell 70: 431-442 (1992)], although longer sequences encompassing the SH2 domain may also be used. Production and purification of the protein domain was similar to methods described above, especially the use of a phosphotyrosine column to purify the GRB2 SH2domain.
As in previous examples, saturation experiments were performed with fixed concentrations of probe and increasing concentrations of Grb-2-SH2.
The following Grb-2-specific SH2 probe ("FPgb2") was synthesized using the techniques described in Example 1 [drawing 1] 2, Fluor-GpYVNV-NH2

Src-SH2 [3] = target: T1, Src-SH2; test: Fluorescence polarization Src-SH2 competition assay with peptides; assay type: binding; settings: for IC50: TABLE 1, fixed probe and Src-SH2, increasing peptide, read-out: Peptide competitive IC50
Method: as §2
For competition experiments, fixed concentrations of probe and protein were used, and increasing concentrations of peptides were added.
All buffer components were low-fluorescence grade (Panvera Corporation). Standard (STD) buffer contains 20 mM phosphate (pH 7.4), 100 mM NaCl, 2 mM DTT, 1 mM EDTA, and 100 ug/ml BGG. Standard buffer is prepared by preparing NaCl, EDTA and phosphate stocks in Millipore water or the cleanest available water supply. The buffer is brought to volume in the same clean water.
The SRC protein is used at a concentration of 0.75 uM final. An example of SRC stock solution is 416.6 uM in STD buffer. […] It is desirable to make a 2× stock of this. For assays where the tighter-binding pYpYpYIE probe is used, the Src protein concentration can be reduced to 150 nM. In general, the concentration of the protein can be adjusted to match the affinity of the probe.
Fluor-GpYEEI is used as the probe at a concentration of 20 nM final. The probe stock sent is 10 uM in STD buffer.

Src SH2-SH3 = Src SH2-SH3 (Homo sapiens, UniProt P12931); test: Fluorescence polarization saturation experiment, Src SH2-SH3 double binding assay; settings: saturation with Src-SH2-SH3; SH2-SH3 probe
Excerpt: Proteins such as Src contain both an SH2 and an SH3 domain. Certain proteins can bind to such SH2- SH3 proteins not through SH2 or SH3 domains alone, but through both domains at once. One example is the protein, p130CAS, which is thought to bind Src via both SH2 and SH3 domains. The SH3 and SH2 binding sequences of p130CAS have been identified by deletional and site-specific mutagenesis (Nakamoto et. al., JBC 271, 8959-8965, 1996). […] Fluorescent probes for FP assays were designed based on these sequences. Such probes can be used in assays that allow simultaneous screening for both SH2-specific and SH3-specific inhibitors. One such probe ("FPC130") is the following:
This is the native sequence from p130CAS (733-767). Derivative probes based on the foregoing but using different component SH2 and/or SH3 sequences may be used to vary the affinity or protein specificity, and especially to increase the overall affinity of probe for the desired target protein.

GRB2 SH2, sequence (P62993 55-152): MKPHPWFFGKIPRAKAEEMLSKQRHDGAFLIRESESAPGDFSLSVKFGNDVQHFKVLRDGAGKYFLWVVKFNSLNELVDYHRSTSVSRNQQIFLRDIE

Compound: CC[C@H](C)[C@H](NC(=O)[C@H](CCC(=O)O)NC(=O)[C@H](CCC(=O)O)NC(=O)[C@H](Cc1ccc(OP(=O)(O)O)cc1)NC(=O)CCCCCNC(=O)CC1=C(C)C2=Cc3ccc(-c4ccc(OC)cc4)n3[B-](F)(F)[N+]2=C1C)C(N)=O [BODIPY-TRX probe]
Hydrophobicity [1]: quite hydrophobic
Kd and total mP difference on protein binding (Src-SH2 [2]): adequate Kd and total mP difference on protein binding

Compound: CC[C@H](C)[C@H](NC(=O)[C@H](CCC(=O)O)NC(=O)[C@H](CCC(=O)O)NC(=O)[C@H](Cc1ccc(OP(=O)(O)O)cc1)NC(=O)CNC(=O)c1ccc2c(c1)C(=O)OC21c2ccc(O)cc2Oc2cc(O)ccc21)C(N)=O [FMT1, fluorescein-G-pYEEI-NH2] (5FAM-G[pY]EEI-NH2)
Kd (Src-SH2 domain; FIG. 2A, error of 0.008, FMT1 fixed at 20 nM, Src-SH2 39 nM to 40 uM, read-out: Calculated Kd (non-linear least squares fit of saturation experiment)): 240 nM
Kd (Src-SH2 domain; FIG. 2B, R value 0.992 for the linear fit, read-out: Calculated Kd (Scatchard analysis)): 260 nM
Binding mode in saturation experiment (Src-SH2 domain; FIGS. 2A and 2B): saturable binding to a single site is observed
Kd (Src-SH2 domain; standard buffer conditions, read-out: Kd towards Src-SH2): ~300 nM

Compound: CC(C)C[C@H](NC(=O)[C@@H]1CCCN1C(=O)c1ccc2c(c1)C(=O)OC21c2ccc(O)cc2Oc2cc(O)ccc21)C(=O)N[C@@H](C)C(=O)N[C@@H](CCCNC(=N)N)C(=O)N[C@@H](CCCNC(=N)N)C(=O)N1CCC[C@H]1C(=O)N[C@@H](CC(C)C)C(=O)N1CCC[C@H]1C(=O)N1CCC[C@H]1C(=O)N[C@@H](CC(C)C)C(=O)N1CCC[C@H]1C(N)=O [FPSH3] (5FAM-PLARRPLPPLP-NH2)
Kd and total mP difference on protein binding (Src SH3): appropriate Kd and total mP difference on protein binding

Compound: CC(C)[C@H](NC(=O)[C@H](CC(N)=O)NC(=O)[C@@H](NC(=O)[C@H](Cc1ccc(OP(=O)(O)O)cc1)NC(=O)CNC(=O)c1ccc2c(c1)C(=O)OC21c2ccc(O)cc2Oc2cc(O)ccc21)C(C)C)C(N)=O [FPgb2, Fluor-GpYVNV-NH2] (5FAM-G[pY]VNV-NH2)
Kd and total mP difference on protein binding (GRB2 SH2): appropriate Kd and total mP difference on protein binding

Compound: CC[C@H](C)[C@H](NC(=O)[C@H](Cc1ccc(OP(=O)(O)O)cc1)NC(=O)[C@H](Cc1ccc(OP(=O)(O)O)cc1)NC(=O)[C@H](Cc1ccc(OP(=O)(O)O)cc1)NC(=O)c1ccc2c(c1)C(=O)OC21c2ccc(O)cc2Oc2cc(O)ccc21)C(=O)N[C@@H](CCC(=O)O)C(N)=O [pYpYpYIE probe, fluorescein-pYpYpYIE-NH2] (5FAM-[pY][pY][pY]IE-NH2)
Relative binding of probe to Src (Src-SH2 [3]; probe allowing Src protein reduced to 150 nM): tighter-binding

IC50 (Src-SH2 [3]): 700000 nM
Compound: Ac-pYGGL

IC50 (Src-SH2 [3]): 100000 nM
Compound: Ac-pYTGL

IC50 (Src-SH2 [3]): 1500 nM
Compound: Ac-pYpYEEI

IC50 (Src-SH2 [3]): 500 nM
Compound: Ac-pYpYpYIE

Compound: Fluor-RPLPSPPKFTSQDSPDGQYENSEGGWMEDpYDYVHL [FPC130]
Kd and total mP difference on protein binding (Src SH2-SH3): appropriate Kd and total mP difference on protein binding
